# The supplement of paper PMC10307832
# Legend:
# Assay in all cases: relative viability (nuclei count vs DMSO), 5 days (fraction); higher = more cells survive
# [1] = compound: Nc1ccccc1NC(=O)c1ccc(CNC(=O)OCc2cccnc2)cc1 [Entinostat] + CC(C)C[C@H](NC(=O)[C@H](Cc1ccccc1)NC(=O)c1cnccn1)B(O)O [Bortezomib] (partner 0.002 µM)
# In short: (§1)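 Values are medians from duplicate plates. Each reflects relative viability, defined as the nuclei count of treated wells over that of vehicle wells. Lung cancer cell lines in 1536-well plates were pin-tool dosed one day after seeding with one drug alone or with a fixed anchor-drug dose plus five library-drug doses (not always all listed) in √10 steps, then fixed, stained and imaged at 4× after 5 days.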
# [2] = compound: C1COCCN1C2=NC(=NC3=C2OC4=C3C=CC=N4)C5=CC(=CC=C5)NC(=O)C6=CN=C(C=C6)N + Nc1ncn([C@H]2C[C@H](O)[C@@H](CO)O2)c(=O)n1 [Decitabine] (partner 2 µM)
# In short: as §1
# [3] = compound: C1COCCN1C2=NC(=NC3=C2OC4=C3C=CC=N4)C5=CC(=CC=C5)NC(=O)C6=CN=C(C=C6)N + C[C@]1(O)C[C@@H](c2nc(-c3ccc4ccc(-c5ccccc5)nc4c3)c3c(N)nccn32)C1 [Linsitinib] (partner 1 µM)
# In short: as §1
# [4] = compound: C1COCCN1C2=NC(=NC3=C2OC4=C3C=CC=N4)C5=CC(=CC=C5)NC(=O)C6=CN=C(C=C6)N + C[C@@H](Oc1cc(-c2cnn(C3CCNCC3)c2)cnc1N)c1c(Cl)ccc(F)c1Cl [Crizotinib] (partner 1 µM)
# In short: as §1
Cell Line,relative viability ([1]; first compound 0.02 µM),relative viability ([1]; first compound 0.06325 µM),relative viability ([1]; first compound 0.2 µM),relative viability ([1]; first compound 0.6325 µM),relative viability ([1]; first compound 2 µM),relative viability ([2]; first compound 0.02 µM),relative viability ([2]; first compound 0.06325 µM),relative viability ([2]; first compound 0.2 µM),relative viability ([2]; first compound 0.6325 µM),relative viability ([2]; first compound 2 µM),relative viability ([3]; first compound 0.02 µM),relative viability ([3]; first compound 0.06325 µM),relative viability ([3]; first compound 0.2 µM),relative viability ([3]; first compound 0.6325 µM),relative viability ([3]; first compound 2 µM),relative viability ([4]; first compound 0.02 µM),relative viability ([4]; first compound 0.06325 µM),relative viability ([4]; first compound 0.2 µM),relative viability ([4]; first compound 0.6325 µM),relative viability ([4]; first compound 2 µM)
HCC-44,0.861,0.758,0.698,0.373,0.269,0.892,0.93,1.01,0.929,0.989,0.616,0.846,0.711,0.606,0.331,0.879,0.927,0.835,0.887,0.624
HCC-78,0.551,0.389,0.27,0.217,0.213,0.69,0.78,0.671,0.961,0.777,0.425,0.329,0.569,0.492,0.415,0.352,0.327,0.329,0.282,0.261
HCC-366,1.08,1.15,0.831,0.41,0.0738,0.296,0.395,0.343,0.373,0.223,0.918,0.82,0.574,0.472,0.207,0.594,0.808,0.575,0.629,0.327
HCC-827,0.979,1.02,0.976,0.979,0.539,0.343,0.298,0.348,0.287,0.302,0.924,0.929,0.968,1.01,0.988,0.905,0.97,0.91,0.985,0.93
HOP-62,0.804,0.591,0.763,0.398,0.17,0.193,0.227,0.243,0.313,0.412,0.675,0.967,0.825,0.934,0.773,1.08,1.14,0.714,0.695,0.65
IA-LM,0.814,0.842,1.03,0.597,0.447,,,,,,0.439,0.696,0.526,0.565,0.327,1.05,0.733,0.619,0.58,0.369
LC-2-ad,0.961,0.895,0.818,0.591,0.197,0.881,0.788,0.92,0.835,0.618,0.836,0.866,0.837,0.826,0.589,0.486,0.494,0.411,0.5,0.387
LK-2,,,,,,0.306,0.267,0.256,0.259,0.243,0.464,0.797,0.625,0.624,0.395,0.21,0.247,0.203,0.279,0.258
NCI-H358,,,,,,0.221,0.212,0.211,0.247,0.182,0.671,0.827,0.674,0.721,0.584,0.64,0.586,0.455,0.559,0.38
NCI-H522,,,,,,0.633,0.798,0.694,0.563,0.645,,,,,,,,,,
NCI-H1299,1.04,0.985,0.934,0.858,0.732,,,,,,0.922,1.13,0.953,1,0.805,0.942,0.95,0.937,0.958,0.669
NCI-H1395,,,,,,0.719,0.672,0.75,0.788,0.849,0.901,1,1.08,1.19,0.875,,,,,
NCI-H1563,0.841,0.843,0.908,0.722,0.65,,,,,,1.22,1.32,1.22,0.901,0.884,0.778,0.833,0.729,0.762,0.728
NCI-H1648,,,,,,0.41,0.481,0.456,0.509,0.52,,,,,,,,,,
NCI-H1650,0.194,0.226,0.2,0.214,0.214,0.415,0.401,0.58,0.661,0.461,,,,,,1,1.05,0.94,1.06,0.601
NCI-H1703,0.314,0.383,0.308,0.265,0.149,,,,,,0.412,0.567,0.747,0.757,0.381,0.357,0.731,0.506,0.401,0.416
NCI-H1793,,,,,,0.445,0.514,0.457,0.602,0.407,0.953,0.845,0.834,0.911,0.475,,,,,
NCI-H1944,,,,,,0.418,0.474,0.456,0.527,0.476,1.19,1.17,1.16,1.13,1,1.23,1.34,1.09,1.25,0.887
NCI-H2170,,,,,,0.493,0.488,0.48,0.551,0.506,,,,,,1.31,1.37,1.25,1.12,0.668
NCI-H2228,0.815,0.831,1.05,0.462,0.204,,,,,,0.588,0.481,0.737,0.728,0.524,0.489,0.536,0.364,0.397,0.291
NCI-H2342,,,,,,0.724,0.727,0.751,0.743,0.693,,,,,,,,,,
SK-MES-1,,,,,,0.407,0.491,0.408,0.643,0.356,0.99,1.24,1.13,1.04,0.791,1.09,1.11,0.975,0.884,0.7
SW 900,,,,,,0.402,0.42,0.448,0.648,0.558,,,,,,,,,,
